Target: MAP kinase-activated protein kinase 2 (Homo sapiens) (UniProt P49137)
Test: Inhibition of MAPKAPK2 at 1 uM

Chain of MAP kinase-activated protein kinase 2 (Homo sapiens) (P49137 whole entry, looked up): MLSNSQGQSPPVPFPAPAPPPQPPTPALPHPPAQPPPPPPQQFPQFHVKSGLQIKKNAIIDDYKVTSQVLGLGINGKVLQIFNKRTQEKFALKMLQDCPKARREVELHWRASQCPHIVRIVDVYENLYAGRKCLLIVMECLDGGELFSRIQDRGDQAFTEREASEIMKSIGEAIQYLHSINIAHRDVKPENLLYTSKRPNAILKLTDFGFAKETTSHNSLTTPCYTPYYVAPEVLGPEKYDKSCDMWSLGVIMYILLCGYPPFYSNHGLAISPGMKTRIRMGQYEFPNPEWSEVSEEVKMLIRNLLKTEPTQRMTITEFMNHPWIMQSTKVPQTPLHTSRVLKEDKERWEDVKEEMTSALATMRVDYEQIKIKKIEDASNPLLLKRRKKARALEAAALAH

Q: For `CC(C)(C)c1cc(C(=O)O)c(NC(=O)Nc2ccc3[nH]ncc3c2)s1`, which inhibition is on record?
A: 10%

Source: ChEMBL document CHEMBL1641460, “Potent and selective thiophene urea-templated inhibitors of S6K” (Bioorg Med Chem Lett, 2011)
